Results as given in US20080293774A1, “Treatment of the Symptoms of Bladder Irritation” (UROGENE, priority 2005, published 2008).

Assays:
[1] = system: rhythmic reflex contractions of the bladder; assay: complete bladder-outlet obstruction (isovolumetric) model of overactive bladder in the rat; type: in vivo, female Wistar rats; conditions: i.v.; for maximum intravesical pressure: all doses tested (HP183 0.3, 1, 3 mg/kg; HP184 1, 3, 10 mg/kg; HP749 1.6, 3.5, 10.5 mg/kg)
Text: The compounds of Table 1 have been evaluated in a conventional animal model of overactive bladder: the complete bladder-outlet obstruction model in the rat, referred to as “isovolumetric” model (K. Sugaya, Y. Ogawa, O, Nishizawa, W C De Groat, Decrease in intravesical saline volume during isovolumetric cystometry in the rat, Neurourol. Urodyn, 1997, 16:125-132). In this model, rhythmic reflex contractions of the bladder are induced in female Wistar rats in which the urethra has been ligatured.
The rats are anaesthetized and implanted with a jugular catheter for the intravenous administration of the compounds. A transurethral catheter is introduced into the bladder, through the bladder dome, so as to allow the infusion of a saline solution and measurement of the intravesical pressure. The urethra is ligatured in order to close off the bladder.
The bladder is infused (50 μl/min) via the transurethral catheter with a saline solution until uninhibited rhythmic contractions appear. The infusion is then stopped and the intravesical pressure is measured for a period of 60 min preceding the injection of the study compounds. The compounds to be studied are then injected via the jugular catheter, and the intravesical pressure is recorded for a period of 60 min. The intravenous administration of the compounds during this test limits the metabolization of HP749 and of HP184 to HP748 and HP183, respectively. The animals are sacrificed at the end of the experiment by means of an overdose of pentobarbital. A scheme of the experiment is given below.
The data from the experiment are analysed with the ELPHY software (a free version of which is accessible at the following address: http://www.unic.cnrs-gif.fr/software/software.htm). The parameters analysed are as follows: • Maximum intravesical pressure (MP, expressed in mmHg) • Threshold pressure (ThP, expressed in mmHg) compared with the carrier (FIG. 2B).

bladder contractions = conditions: rats suffering from bladder irritation; cited from earlier work
[2] = human; cited from earlier work
[3] = all doses tested (HP183 0.3, 1, 3 mg/kg; HP184 1, 3, 10 mg/kg), 60 min recording, compared with the carrier
[4] = 60 min recording, compared with the carrier

SMILES	frequency of rhythmic isovolumetric contractions [1, 3]	maximum intravesical pressure [1, 4]	frequency of bladder contractions related to bladder irritation (bladder contractions)	frequency of rhythmic isovolumetric contractions ([1]; highest dose (10.5 mg/kg))	frequency of rhythmic isovolumetric contractions ([1]; lowest dose (HP749 1.6 mg/kg))	metabolite formed by biotransformation [2]	frequency of bladder contractions ([1]; from the first dose of 0.3 mg/kg, dose-dependent)
CCCN(c1ccncc1F)n1cc(C)c2ccccc21 [HP184, N-(3-fluoro-4-pyridinyl)-N-propyl-3-methyl-1H-indol-1-amine]	no statistically significant effect	no statistically significant effect	slightly decreasing	–	–	–	–
CCCN(c1ccncc1)n1ccc2ccccc21 [HP749, N-propyl-N-(4-pyridinyl)-1H-indol-1-amine]	–	did not demonstrate any effect	–	increasing	decreasing	metabolized in human to compound (I)	–
Cc1cn(Nc2ccncc2F)c2ccccc12 [HP183, N-(3-fluoro-4-pyridinyl)-3-methyl-1H-indol-1-amine]	no statistically significant effect	no statistically significant effect	–	–	–	–	–
c1ccc2c(c1)ccn2Nc1ccncc1 [HP748, N-(4-pyridinyl)-1H-indol-1-amine]	–	–	–	–	–	–	considerably and statistically significantly decreased
